In US9505763B2, “Cancer treatment using BMP inhibitor” (Vanderbilt University, priority 2011, dated 2016):

Experiments:
[1] = tested on: constitutively active alk6 (ca-alk6); test: BRE-luciferase with constitutively active alk6 in H1299 cells; type: cell-based; conditions: 1 μM antagonist
Procedure: To assess the effects of antagonists on a specific type I BMP receptor, 2 μg of constitutively active ca-alk3 and ca-alk6 expression vectors were co-transfected with the BRE-luciferase reporter into H1299 cells with Nucleofector II. Control cells were co-transfected with the pcDNA3 expression vector. After 48 hours the cells were treated with DMSO or a BMP receptor antagonist for 48 hours and luminescence was measured.

[2] = tested on: A549 cells; test: Cell counts after 7 days; type: cell-based; conditions: DMEM 5% FCS, 10 μM Dorsomorphin or 1 μM DMH1, DMH2, LDN
Procedure: (§1) Cell Counts. A549 and H1299 cells were plated into 6 well plates with 100,000 cells per well. Cells were treated with DMSO or a BMP receptor antagonist for 7 days. The cells were detached with trypsin, stained with trypan blue, and the number of live cells counted using a hemacytometer.

[3] = tested on: H1299 cells; test: Cell counts after 7 days; type: cell-based
Procedure: as §1

[4] = tested on: A549 cells; test: Clonogenic growth assay; type: cell-based; conditions: 1 μM, 2 weeks
Procedure: (§2) Clonigenic Growth Assay. A549 and H1299 cells were plated into 6 well plates with 500 cells per well. The next day the cells were treated with DMSO or a BMP receptor antagonist for 2 weeks. The colonies were stained with Diff-Quick (IMEB Inc. San Marcos, Calif.) and the total number of colonies per well counted.

[5] = tested on: H1299 cells; test: Clonogenic growth assay; type: cell-based; conditions: 1 μM, 2 weeks
Procedure: as §2

[6] = tested on: A549 cells; test: Ethidium bromide uptake cell death assay; type: cell-based; conditions: 48 hours, 10 μM Dorsomorphin or 1 μM selective antagonist
Procedure: Cell Death Assay: A549 and H1299 cells were plated in 6 well plates with 10^6 cells per well. Cells were treated with DMSO or a BMP receptor antagonist for 12 and 48 hours. Adherent and floating cells were harvested and incubated with 0.1 mg/ml of ethidium bromide. Immediately after staining approximately 100 cells were counted and the percentage of cells that took up ethidium bromide was determined.

[7] = tested on: H1299 cells; test: Trypan blue cell death counts; type: cell-based; conditions: 4 days
[8] = tested on: H1299 cells; test: Amine-reactive fluorescent dye (LIVE/DEAD) flow cytometry; type: cell-based
Procedure: Cell death was also determined using the LIVE/DEAD fixable dead cell stain kit as per manufacturer's instructions (Life Technologies, L-23101). This assay employs an amine-reactive fluorescent dye, which in compromised membranes the dye reacts with free amines on the cell interior in dead cells. H1299 cells were treated with DMH2 for 48 hours and the percentage of dead cells then detected by flow cytometry.

[9] = tested on: AMP kinase; conditions: compared with Dorsomorphin and LDN; cited from earlier work
[10] = target: platelet-derived growth factor receptor-β (Homo sapiens, UniProt P09619); conditions: compared with Dorsomorphin and LDN; cited from earlier work
platelet-derived growth factor receptor-β, sequence (P09619 33-1106, species assumed): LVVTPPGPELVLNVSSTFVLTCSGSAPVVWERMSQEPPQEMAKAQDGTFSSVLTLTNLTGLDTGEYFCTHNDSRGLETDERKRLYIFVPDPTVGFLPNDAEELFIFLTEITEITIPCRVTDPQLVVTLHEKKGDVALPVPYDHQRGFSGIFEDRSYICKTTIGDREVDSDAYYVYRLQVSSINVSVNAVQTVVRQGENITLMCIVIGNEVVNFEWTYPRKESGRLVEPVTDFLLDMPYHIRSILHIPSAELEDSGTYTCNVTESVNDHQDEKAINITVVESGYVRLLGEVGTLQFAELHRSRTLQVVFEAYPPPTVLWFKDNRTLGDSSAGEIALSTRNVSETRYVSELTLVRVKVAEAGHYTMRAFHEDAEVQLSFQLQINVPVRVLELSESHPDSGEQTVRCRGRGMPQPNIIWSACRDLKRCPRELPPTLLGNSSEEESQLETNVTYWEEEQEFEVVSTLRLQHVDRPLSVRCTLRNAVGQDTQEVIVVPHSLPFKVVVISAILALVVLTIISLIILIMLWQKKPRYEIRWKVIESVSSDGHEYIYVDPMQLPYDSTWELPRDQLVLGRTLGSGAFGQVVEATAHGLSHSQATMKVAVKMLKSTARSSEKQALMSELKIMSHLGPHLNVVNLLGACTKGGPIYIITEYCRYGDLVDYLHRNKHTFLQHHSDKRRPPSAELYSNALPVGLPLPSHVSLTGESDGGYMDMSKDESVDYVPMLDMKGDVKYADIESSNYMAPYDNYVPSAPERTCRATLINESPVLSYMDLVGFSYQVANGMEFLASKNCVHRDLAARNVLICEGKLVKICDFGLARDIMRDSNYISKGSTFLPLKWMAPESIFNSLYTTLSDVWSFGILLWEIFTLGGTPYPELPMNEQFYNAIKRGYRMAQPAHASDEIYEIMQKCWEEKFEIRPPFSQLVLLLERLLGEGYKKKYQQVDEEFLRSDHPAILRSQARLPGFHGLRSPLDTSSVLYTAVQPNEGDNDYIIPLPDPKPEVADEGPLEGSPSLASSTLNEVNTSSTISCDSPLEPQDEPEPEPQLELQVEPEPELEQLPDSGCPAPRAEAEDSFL

CN(C)CCCOc1ccc(-c2cnc3c(-c4ccnc5ccccc45)cnn3c2)cc1 [DMH2]
inhibition of ca-alk6 activity (BRE-luciferase) [1]: more inhibition of alk6 than DMH1 and LDN
cell growth (number of cells) [2]: significantly more growth inhibition than DMH1
cell growth (number of cells) ([3]; H1299, DMEM 5% FCS, 10 μM Dorsomorphin or 1 μM DMH1, DMH2, LDN): significantly more growth inhibition than DMH1
cell growth (number of cells) ([3]; H1299 cultured in SFM, 1 μM): significant inhibition of cell growth
clonogenic growth [4]: inhibited more by DMH2 and LDN than DMH1
clonogenic growth [5]: inhibited more by DMH2 and LDN than DMH1
cell death (percentage of cells taking up ethidium bromide) [6]: significant increase in cell death
percentage of dead cells (trypan blue) ([7]; H1299 cultured in SFM, 1 μM, compared with DMEM 5% FCS): even higher
cell death (percentage of dead cells, trypan blue) ([7]; H1299 in DMEM 5% FCS, 1 μM and 5 μM): significant increased in cell death, which was dose dependent
cell death (amine-reactive fluorescent dye) [8]: induced cell death
activity for AMP kinase (comparison) [9]: less activity
activity for platelet-derived growth factor receptor-β (comparison) [10]: less activity
